Data on 30 molecules can be found in ChEMBL document CHEMBL5634145, “Discovery of novel amidobenzimidazole derivatives as orally available small molecule modulators of stimulator of interferon genes for cancer immunotherapy” (Eur J Med Chem, 2023).

The nature of data set [1]: Cytotoxicity against wild type human THP1-Dual cells assessed as cell viability incubated for 24 hrs by CellTiter 96 aqueous one solution assay relative to control. In kind it is toxicity, cell-based. More on the design: concentration or dose not given beside the values. The settings on record: read-out: Activity.
Data set [2] can be described thus: Cytotoxicity against human THP1-Dual KO-STING cells assessed as cell viability incubated for 24 hrs by CellTiter 96 aqueous one solution assay relative to control. It counts as toxicity, cell-based. More on the design: concentration or dose not given beside the values. The settings on record: read-out: Activity.
In data set [3] the target is Stimulator of interferon genes protein (Homo sapiens, UniProt Q86WV6). In words: Agonist activity at STING in wild type human THP1-Dual cells assessed as increase in IRF-mediated immune response incubated for 24 hrs by QUANTI-Luc assay. In kind it is cell-based.

As usually defined, the pEC50 is the negative decadic logarithm of the EC50, by convention in mol/L.

pEC50: −log10 of the molar value.

Stimulator of interferon genes protein, sequence (Q86WV6 whole entry): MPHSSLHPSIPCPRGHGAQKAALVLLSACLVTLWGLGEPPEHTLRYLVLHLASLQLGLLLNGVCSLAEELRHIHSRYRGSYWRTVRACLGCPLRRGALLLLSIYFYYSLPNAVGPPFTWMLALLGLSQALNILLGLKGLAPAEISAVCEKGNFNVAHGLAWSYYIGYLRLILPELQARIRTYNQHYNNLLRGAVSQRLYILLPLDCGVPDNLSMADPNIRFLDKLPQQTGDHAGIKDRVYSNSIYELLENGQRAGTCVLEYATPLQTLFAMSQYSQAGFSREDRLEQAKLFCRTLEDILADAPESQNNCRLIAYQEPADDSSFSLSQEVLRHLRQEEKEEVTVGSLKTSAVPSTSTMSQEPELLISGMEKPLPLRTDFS

Regarding `CC(C)(C)OC(=O)NCCCCn1c(NC(=O)c2cccnc2F)nc2cc(C(N)=O)ccc21`, the viability at 24 h in data set [1] worked out at 107%; in data set [2], 108%.

As to `CC(=O)NCCCCn1c(NC(=O)c2cccnc2C)nc2cc(C(N)=O)ccc21`, the viability at 24 h in data set [1] turned out to be 99.7%; in data set [2], 97.4%.

On to `Cc1ccncc1C(=O)Nc1nc2cc(C(N)=O)ccc2n1CCCCNC(=O)OC(C)(C)C`, for which the figures for the viability at 24 h in data set [1] and in data set [2] were 88.5% and 87.8%, respectively.

`CCn1nc(C)cc1C(=O)Nc1nc2cc(C(N)=O)ccc2n1CCCCn1c(NC(=O)c2cc(C)nn2CC)nc2cc(C(N)=O)ccc21`: the pEC50 in data set [3] is 5.04. The viability at 24 h was 101% in data set [1] and 117% in data set [2].

As to `CC(C)(C)OC(=O)NCCCCn1c(NC(=O)c2cccnc2C(F)(F)F)nc2cc(C(N)=O)ccc21`, the viability at 24 h in data set [1] was 108%; in data set [2] it was 102%.

Take `Cc1ncccc1C(=O)Nc1nc2cc(C(N)=O)ccc2n1CCCN`: the viability at 24 h in data set [1] was determined as 105%; in data set [2], 100%.

As for `CC(C)(C)OC(=O)NCCCCn1c(NC(=O)c2ccc(C(F)(F)F)nc2)nc2cc(C(N)=O)ccc21`, the results for the viability at 24 h in data set [1] and in data set [2] were 106% and 108%, respectively.

As for `CCn1nc(C)cc1C(=O)Nc1nc2cc(C(N)=O)ccc2n1CCCCNC(=O)OC(C)(C)C`, the pEC50 in data set [3] was 4.71. The viability at 24 h in data set [1] stood at 69%; in data set [2], 105%.

In the case of `Cc1ncccc1C(=O)Nc1nc2cc(C(N)=O)ccc2n1CCCCn1c(NC(=O)c2cccnc2C)nc2cc(C(N)=O)ccc21`, the pEC50 in data set [3] is 4.74. In addition, the viability at 24 h in data set [1] turned out to be 91%; in data set [2] it was 118%.

Regarding `Cc1ncccc1C(=O)Nc1nc2cc(C(N)=O)ccc2n1CCCCN`, the results for the viability at 24 h in data set [1] and in data set [2] were 105% and 98.5%, respectively.

For the molecule `Cc1ncccc1C(=O)Nc1nc2cc(C(N)=O)ccc2n1C`, the figures for the viability at 24 h in data set [1] and in data set [2] were 82.8% and 105%, respectively.

As to `Nc1nc2c(ncn2[C@@H]2O[C@@H]3COP(=O)(O)O[C@H]4[C@@H](O)[C@H](n5cnc6c(N)ncnc65)O[C@@H]4COP(=O)(O)O[C@H]3[C@H]2O)c(=O)[nH]1`, the viability at 24 h stood at 87% in data set [1] and 97.2% in data set [2].

Turning to `Cc1ccc(C(=O)Nc2nc3cc(C(N)=O)ccc3n2CCCCNC(=O)OC(C)(C)C)cn1`, the viability at 24 h in data set [1] amounted to 89.3%; in data set [2], 95.3%.

For `CC(C)(C)OC(=O)NCCCCn1c(NC(=O)c2ccncc2)nc2cc(C(N)=O)ccc21`, the viability at 24 h is 86.9% in data set [1] and 90.6% in data set [2].

As to `CC(C)(C)OC(=O)NCCCCn1c(NC(=O)c2ccccc2)nc2cc(C(N)=O)ccc21`, the viability at 24 h in data set [1] was found to be 82.1%; in data set [2], 101%.

Take `CC(C)(C)OC(=O)NCCCCn1c(NC(=O)c2cccnc2Cl)nc2cc(C(N)=O)ccc21`: the viability at 24 h in data set [1] was found to be 105%; in data set [2], 100%.

Regarding `Cc1ncccc1C(=O)Nc1nc2cc(C(N)=O)ccc2n1CCCCCNC(=O)OC(C)(C)C`, the viability at 24 h in data set [1] was determined as 92.2%; in data set [2], 92%.

For `Cc1nc(C(F)(F)F)ccc1C(=O)Nc1nc2cc(C(N)=O)ccc2n1CCCCNC(=O)OC(C)(C)C`, the pEC50 in data set [3] is 4.53. Besides, the viability at 24 h was determined as 106% in data set [1] and 97.5% in data set [2].

Turning to `CC(C)(C)OC(=O)NCCCCn1c(NC(=O)c2cccnc2C(C)(C)C)nc2cc(C(N)=O)ccc21`, the viability at 24 h in data set [1] is 91.6%; in data set [2], 106%.

In the case of `Cc1ncccc1C(=O)Nc1nc2cc(C(N)=O)ccc2n1CCCCCN`, the viability at 24 h in data set [1] turned out to be 110%; in data set [2] it was 99.3%.

On to `CCc1ncccc1C(=O)Nc1nc2cc(C(N)=O)ccc2n1CCCCNC(=O)OC(C)(C)C`, for which the viability at 24 h in data set [1] came to 89.2%; in data set [2], 94.7%.

Consider `COc1cc(C(N)=O)cc2nc(NC(=O)c3cccnc3C)n(C/C=C/CNC(=O)OC(C)(C)C)c12`, for which the viability at 24 h in data set [1] amounted to 106%; in data set [2], 97.5%.

`Cc1ncccc1C(=O)Nc1nc2cc(C(N)=O)ccc2n1CCCNC(=O)OC(C)(C)C`: the viability at 24 h in data set [1] is 102%; in data set [2], 93.6%.

Consider `CC(C)(C)OC(=O)NCCCCn1c(NC(=O)c2cccnc2)nc2cc(C(N)=O)ccc21`, for which the pEC50 in data set [3] was 4.38. The viability at 24 h in data set [1] was 97.4%; in data set [2], 93.3%.

On to `CC(C)(C)OC(=O)NCCCCn1c(NC(=O)c2ccc(F)nc2)nc2cc(C(N)=O)ccc21`, for which the viability at 24 h in data set [1] amounted to 102%; in data set [2] it was 107%.

In the case of `Cc1ncccc1C(=O)Nc1nc2cc(C(N)=O)ccc2n1CCCCNC(=O)c1ccccc1`, the viability at 24 h came out at 101% in data set [1] and 93.8% in data set [2].

Regarding `Cc1cncc(C(=O)Nc2nc3cc(C(N)=O)ccc3n2CCCCNC(=O)OC(C)(C)C)c1`, the viability at 24 h in data set [1] worked out at 90.7%; in data set [2], 97.4%.

In the case of `CCn1nc(C)cc1C(=O)NCCCCn1c(NC(=O)c2cccnc2C)nc2cc(C(N)=O)ccc21`, the viability at 24 h in data set [1] is 98.5%; in data set [2] it was 105%.

`Cc1ccc(C(=O)Nc2nc3cc(C(N)=O)ccc3n2CCCCNC(=O)OC(C)(C)C)c(C)n1`: the viability at 24 h in data set [1] came to 112%; in data set [2], 93.2%.

On to `COc1cc(C(N)=O)cc2nc(NC(=O)c3ccc(C(F)(F)F)nc3C)n(C/C=C/CNC(=O)OC(C)(C)C)c12`, for which the viability at 24 h in data set [1] was found to be 87.5%; in data set [2] it was 107%.
